# Experimental data from paper PMC11783601, “Analogue-Sensitive Inhibition of Histone Demethylases Uncovers Member-Specific Function in Ribosomal Protein Synthesis” (Journal of the American Chemical Society, 2025).
# Target: T1, KDM6B (Homo sapiens, UniProt O15054)
# T1 construct: The plasmid construct for the catalytic domain of wild type KDM6B; 6xHis (N); made in house; host or cells: E. coli Rosetta [DE3]
# Assay: MALDI-based assay for KDM6B on H3K27me3 peptide
# Assay type: biochemical
# Conditions: MALDI-TOF
# Experimental: (NH4)2Fe(SO4)2, 1 mM L-ascorbic acid, 1 mM NAD+, 200 nM FDH, and 1 µM KDM4A) in varying concentrations (0-10 µM). The experiments were performed in 384-well white Corning plates. The fluorescence intensity was measured with excitation = 340 nm and emission = 490 nm on a TECAN Infinite M1000Pro. Triplicate values were taken for each concentration.
# The set up and analysis for IC50 of L-Leu NOG against KDM4A F185A enzyme was similar to that described in the coupled fluorescence assay section, but adjusted to function as an end point […]
# 2 mM L-ascorbic acid, 1 mM NAD+, 200 nM FDH, 3 µM wild type KDM4A or KDM4A-F185A, and varying concentration of compounds (NOGs 6, 9 and 10) and a substrate cocktail (200 µM 2OG and 60 µM H3K9me3 peptide). Different concentrations of NOG 6 were measured at one […]
# For 9 and 10, the same set-up remained, but enzymatic activity was measured via MALDI-TOF analysis, and relative activity and inhibition was calculated for different NOG concentrations as described above. […]
# equivalent volume of water in 10 µL aliquots. […] The sample was ionized with Bruker FlexControl in the reflectron positive mode and analyzed on Bruker FlexAnalysis software. The percent demethylated peptide was calculated by first multiplying the K27me1 peak by 2 and the K27me0 peak by 3 to account for the multiple […]
# the reflectron positive mode and analyzed on Bruker FlexAnalysis software. […]
# T1 sequence (O15054 1339-1502 limits assumed): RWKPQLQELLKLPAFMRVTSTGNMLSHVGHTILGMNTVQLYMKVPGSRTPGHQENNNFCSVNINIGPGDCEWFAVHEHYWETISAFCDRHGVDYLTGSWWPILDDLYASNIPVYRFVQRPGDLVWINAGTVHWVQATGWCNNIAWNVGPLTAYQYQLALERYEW
structure (smiles),measurement,value
"CC(C)CC(NC(=O)C(=O)O)C(=O)O (stereo not shown) [compound 6, N-oxalyl leucine]",inhibition of KDM6B,No inhibition
